Measurements from paper PMC8318231, “Rate-of-Kill (RoK) assays to triage large compound sets for Chagas disease drug discovery: Application to GSK Chagas Box” (PLoS Neglected Tropical Diseases, 2021).

Assays:
TcCYP51 = details: formerly reported; cited from earlier work
[1] = tested on: T. cruzi intracellular amastigotes in H9c2 cells; assay: Rate-of-Kill (RoK) high-content imaging assay, amastigotes per cell (AM/CELL) and curve descriptors; assay type: cell-based, Trypanosoma cruzi; design: key to ME_24h / ME_48h / ME_72h: % reduction in parasite burden (cidal response); t50pct_MCC50 / t50pct_Cmax: unit not given here; details: for ME_24h: 24h; for ME_48h: 48h; for ME_72h: 72h; for AM/CELL NORM: sheet figure 4 A; for t50%_Cmax / tlag_Cmax / t50pct_Cmax: at Cmax; for ME_24h (%): maximum effect at 24 h; for ME_24h (%) / ME_48h (%) / ME_72h (%): RoK assay; for ME_48h (%): maximum effect at 48 h; for ME_72h (%): maximum effect at 72 h; for ME 24h (maximum effect at 24 hours, intracellular amastigotes): maximum percentage of parasite burden reduction reached by any concentration
Outline: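 H9c2 cardiomyocytes infected with T. cruzi trypomastigotes (MOI 8, 18 h), then compounds tested at 5 μM single shot or 11-point 1/3 dilution from 50 μM. DRAQ5-stained nuclei imaged over a time course. Amastigotes per cell normalised to infected cells at 4 h (0%) and non-infected cells (100%).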

[2] = tested on: T. cruzi Tulahuen trypomastigotes; assay: T. cruzi trypomastigote assay (Cell Titer-Glo viability, ATP luminescence); assay type: cell-based, Trypanosoma cruzi; details: for Trypomastigotes pIC50 48 hours: 48 hours incubation; for Trypomastigotes pIC50 48 hours / Trypomastigotes pIC50 72 hours: pIC50 = -log10 IC50 in molar units; for Trypomastigotes pIC50 72 hours: 72 hours incubation; for 72 pIC50 (trypomastigotes, raw data of Fig 1D): 72 hours, plotted values, censored values given without sign; for 48 pIC50 / 72 pIC50: trypomastigote assay; for 48 pIC50: 48 h; for 72 pIC50: 72 h
Outline: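 Tulahuen trypomastigotes from infected LLC-MK2 culture supernatants (days 5–8) plated at 5 × 10^4 per well in DMEM/2% FBS with compound at 5 μM single-shot final or in dose response. Viability by CellTiter-Glo ATP luminescence after 10 min at room temperature, normalised to no-cell (100%) and DMSO (0%) controls.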

SMILES	CYP51 pIC50 (TcCYP51)	ME_24h ([1]; figure 5)	ME_48h ([1]; figure 5)	ME_72h ([1]; figure 5)	MCCE ([1]; RoK curve descriptor) [µM]	AM/CELL NORM ([1]; Time 4)	AM/CELL NORM ([1]; Time 24)	AM/CELL NORM ([1]; Time 48)	AM/CELL NORM ([1]; Time 72)	tlag_Cmax [1] [h]	t50pct_Cmax ([1]; figure 5)	tlag_Cmax ([1]; figure 5)	t50pct_MCC50 ([1]; at MCC50, figure 5)	tlag_MCC50 ([1]; at MCC50, figure 5)	MCCE ([1]; figure 5)	ME_24h (%) [1] [%]	ME_48h (%) [1] [%]	ME_72h (%) [1] [%]	ME 24h (maximum effect at 24 hours, intracellular amastigotes) [1] [%]	Trypomastigotes pIC50 48 hours [2]	other results
O=C(C1CCCCC1)N1CCN(c2nnc(-c3ccccc3)c3ccccc23)CC1 [TCMDC-143511]	< 4	-40.3218	29.1145	87.9479	1.9	-0.05415	-40.3218	2.791	87.9479	24.0	72	24	72	24	1.852	-40.3	29.1	88.0	-40.3218	< 4.3	MCC50 ([1]; RoK curve descriptor): 5.6 µM; t50%_Cmax [1]: 72.0 h; t50%_MCC50 ([1]; at MCC50): 72.0 h; tlag_MCC50 ([1]; at MCC50): 24.0 h; MCC50 ([1]; figure 5, in µM): 5.556; Trypomastigotes pIC50 72 hours [2]: < 4.3; 72 pIC50 (trypomastigotes, raw data of Fig 1D) [2]: < 4.3; 48 pIC50 ([2]; figure 1A): < 4.3; 72 pIC50 ([2]; figure 1A): < 4.3; 72 pIC50 ([2]; figure 1B): < 4.3
CN(C(=O)Nc1ccc2c(c1)CCN(C1CCC1)CC2)c1ccc(C#N)cc1.Cl [TCMDC-143526]	< 4	-107.476	-30.6533	30.9234	1.9	4.08	-107.476	-30.6533	30.9234	24.0	72	24	72	72	1.852	-107.5	-30.7	30.9	-107.476	< 4.3	MCC50 ([1]; figure 5): 50 µM; Trypomastigotes pIC50 72 hours [2]: < 4.3; 72 pIC50 (trypomastigotes, raw data of Fig 1D) [2]: < 4.3; 48 pIC50 ([2]; figure 1A): < 4.3; 72 pIC50 ([2]; figure 1A): < 4.3; 72 pIC50 ([2]; figure 1B): < 4.3
CC(CNS(=O)(=O)c1ccc(OC(F)F)cc1)c1ccc(NC(=O)c2ccncc2)cc1 (centres unmarked) [TCMDC-143535]	7.3	-92.8433	-11.1799	45.5869	0.2	3.544	-92.8433	-15.4132	37.7082	24.0	72	24	72	72	0.2058	-92.8	-11.2	45.6	-92.8433	4.6	MCC50 ([1]; figure 5): 50 µM; Trypomastigotes pIC50 72 hours [2]: 4.4
Cn1cc(CN2CCN(c3ccc4c(c3)CCN(C(=O)[C@H]3C[C@@H]3c3ccccc3)CC4)CC2)cn1 [TCMDC-143537]	4.8	33.1689	35.5175	52.5957	0.6	1.751	33.1689	30.0543	50.1418	4.0	72	4	72	24	0.6173	33.2	35.5	52.6	33.1689	5	MCC50 ([1]; RoK curve descriptor): 16.7 µM; t50%_Cmax [1]: 72.0 h; t50%_MCC50 ([1]; at MCC50): 72.0 h; tlag_MCC50 ([1]; at MCC50): 24.0 h; MCC50 ([1]; figure 5, in µM): 16.6667; Trypomastigotes pIC50 72 hours [2]: 4.9
O=C(CN(c1cccc(C(F)(F)F)c1)S(=O)(=O)c1ccc(Cl)cc1)NCc1ccc(F)c(F)c1 [TCMDC-143548]	6.8	-13.6646	17.5808	36.7488	0.6	27.6101	-54.8458	-14.5763	13.9259	24.0	72	24	72	72	0.6173	-13.7	17.6	36.8	-13.6646	5	MCC50 ([1]; figure 5): 50 µM; Trypomastigotes pIC50 72 hours [2]: 4.9
COc1ccc(S(=O)(=O)NCc2ccc(-c3ccc(CN(C)CCO)cc3)cc2)cc1.O=C(O)C(F)(F)F [TCMDC-143549]	4.8	31.0393	40.4277	76.5332	5.6	-7.714	31.0393	40.4277	76.5332	4.0	72	4	72	24	5.556	31.0	40.4	76.5	31.0393	4.6	MCC50 ([1]; RoK curve descriptor): 16.7 µM; t50%_Cmax [1]: 72.0 h; t50%_MCC50 ([1]; at MCC50): 72.0 h; tlag_MCC50 ([1]; at MCC50): 24.0 h; MCC50 ([1]; figure 5, in µM): 16.6667; Trypomastigotes pIC50 72 hours [2]: < 4.3
CCCN1CCN(Cc2ccc(S(=O)(=O)Nc3cccc(C)c3)cc2)CC1.O=C(O)C(F)(F)F.O=C(O)C(F)(F)F [TCMDC-143550]	< 4	-35.0895	33.2327	65.1227	0.6	-2.745	-35.0895	33.2327	54.4775	24.0	72	24	72	24	0.6173	-35.1	33.2	65.1	-35.0895	< 4.3	MCC50 ([1]; RoK curve descriptor): 1.9 µM; t50%_Cmax [1]: 72.0 h; t50%_MCC50 ([1]; at MCC50): 72.0 h; tlag_MCC50 ([1]; at MCC50): 24.0 h; MCC50 ([1]; figure 5, in µM): 1.852; Trypomastigotes pIC50 72 hours [2]: < 4.3; 72 pIC50 (trypomastigotes, raw data of Fig 1D) [2]: < 4.3; 48 pIC50 ([2]; figure 1A): < 4.3; 72 pIC50 ([2]; figure 1A): < 4.3; 72 pIC50 ([2]; figure 1B): < 4.3
